Source: patent US9855243B2, “Topical anti-inflammatory pharmaceutical composition with zileuton cream formulation” (Qurient Co., Ltd., priority 2013, dated 2018)

How the values were obtained:
[1] = Physical stability, phase separation checked with the naked eye; format: physicochemical; conditions: solvent screened in cream composition
Source text: This is a test to discover an optimized processing method for obtaining a cream formulation.

[2] = Screening of excipient suitability: zileuton with excipient, stability at 50° C.; format: physicochemical; conditions: changes of TRS % up to 4 weeks at 50° C.
Procedure: Suitability of components generally used in cream formulation with respect to zieluton was screened, prior to preparing a zieluton cream formulation. […] That is, the stability of excipient at 50° C. was tested.

Physical stability of cream made with this solvent [1]	Suitability of excipient with respect to zileuton [2]	SMILES
bad physical stability		CN1CCCC1=O [NMP, N-methyl pyrrolidone]
bad physical stability		OCc1ccccc1 [benzyl alcohol]
deteriorates physical stability		CCO [ethanol]
	suitable	CCCCCCCCCCCCCCCCCCO [stearyl alcohol]
